Experimental data published in the NIST ThermoML archive (doi:10.1016/j.jct.2013.01.005).
Numbers after ± are expanded uncertainties.

Assay: activity coefficient (dimensionless); of the first substance listed, at infinite dilution; xn = mol fraction of the nth substance listed
Details: 101 kPa, Liquid, Chromatography, x1 = 0

Compound: CCCCCCCCC [nonane] + CCCCCC[N+]1(C)CCCCC1.O=S(=O)([N-]S(=O)(=O)C(F)(F)F)C(F)(F)F
- activity coefficient (308.15 K): 16.9 ± 1.2
- activity coefficient (318.15 K): 16.4 ± 1.1
- activity coefficient (328.15 K): 15.7 ± 1.1
- activity coefficient (338.15 K): 15.3 ± 1
- activity coefficient (348.15 K): 14.6 ± 1
- activity coefficient (358.15 K): 14.1 ± 1

Compound: CCCCCCCCC [nonane] + CCCCC[N+]1(C)CCCCC1.O=S(=O)([N-]S(=O)(=O)C(F)(F)F)C(F)(F)F
- activity coefficient (308.15 K): 24.2 ± 1.7
- activity coefficient (318.15 K): 22.4 ± 1.5
- activity coefficient (328.15 K): 21.1 ± 1.4
- activity coefficient (338.15 K): 19.9 ± 1.4
- activity coefficient (348.15 K): 19 ± 1.3
- activity coefficient (358.15 K): 18 ± 1.2

Compound: C=CCCCCCC [oct-1-ene] + CCCCCC[N+]1(C)CCCCC1.O=S(=O)([N-]S(=O)(=O)C(F)(F)F)C(F)(F)F
- activity coefficient (308.15 K): 7.72 ± 0.53
- activity coefficient (318.15 K): 7.6 ± 0.52
- activity coefficient (328.15 K): 7.49 ± 0.51
- activity coefficient (338.15 K): 7.37 ± 0.5
- activity coefficient (348.15 K): 7.27 ± 0.5
- activity coefficient (358.15 K): 7.2 ± 0.49

Compound: C=CCCCCCC [oct-1-ene] + CCCCC[N+]1(C)CCCCC1.O=S(=O)([N-]S(=O)(=O)C(F)(F)F)C(F)(F)F
- activity coefficient (308.15 K): 9.9 ± 0.68
- activity coefficient (318.15 K): 9.65 ± 0.66
- activity coefficient (328.15 K): 9.28 ± 0.63
- activity coefficient (338.15 K): 8.94 ± 0.61
- activity coefficient (348.15 K): 8.77 ± 0.6
- activity coefficient (358.15 K): 8.47 ± 0.58

Compound: CCCCCCCC [octane] + CCCCCC[N+]1(C)CCCCC1.O=S(=O)([N-]S(=O)(=O)C(F)(F)F)C(F)(F)F
- activity coefficient (308.15 K): 12.9 ± 0.9
- activity coefficient (318.15 K): 12.7 ± 0.9
- activity coefficient (328.15 K): 12.1 ± 0.8
- activity coefficient (338.15 K): 11.8 ± 0.8
- activity coefficient (348.15 K): 11.3 ± 0.8
- activity coefficient (358.15 K): 10.9 ± 0.7

Compound: CCCCCCCC [octane] + CCCCC[N+]1(C)CCCCC1.O=S(=O)([N-]S(=O)(=O)C(F)(F)F)C(F)(F)F
- activity coefficient (308.15 K): 18.2 ± 1.2
- activity coefficient (318.15 K): 16.9 ± 1.2
- activity coefficient (328.15 K): 15.9 ± 1.1
- activity coefficient (338.15 K): 15.1 ± 1
- activity coefficient (348.15 K): 14.4 ± 1
- activity coefficient (358.15 K): 13.7 ± 0.9

Compound: CCCCCO [pentan-1-ol] + CCCCCC[N+]1(C)CCCCC1.O=S(=O)([N-]S(=O)(=O)C(F)(F)F)C(F)(F)F
- activity coefficient (308.15 K): 2.44 ± 0.17
- activity coefficient (318.15 K): 2.23 ± 0.15
- activity coefficient (328.15 K): 2.05 ± 0.14
- activity coefficient (338.15 K): 1.92 ± 0.13
- activity coefficient (348.15 K): 1.8 ± 0.12
- activity coefficient (358.15 K): 1.71 ± 0.11

Compound: CCCCCO [pentan-1-ol] + CCCCC[N+]1(C)CCCCC1.O=S(=O)([N-]S(=O)(=O)C(F)(F)F)C(F)(F)F
- activity coefficient (308.15 K): 2.5 ± 0.17
- activity coefficient (318.15 K): 2.37 ± 0.16
- activity coefficient (328.15 K): 2.2 ± 0.15
- activity coefficient (338.15 K): 2.03 ± 0.14
- activity coefficient (348.15 K): 1.94 ± 0.13
- activity coefficient (358.15 K): 1.79 ± 0.12

Compound: CCCC(C)=O [pentan-2-one] + CCCCCC[N+]1(C)CCCCC1.O=S(=O)([N-]S(=O)(=O)C(F)(F)F)C(F)(F)F
- activity coefficient (308.15 K): 0.573 ± 0.041
- activity coefficient (318.15 K): 0.581 ± 0.041
- activity coefficient (328.15 K): 0.596 ± 0.042
- activity coefficient (338.15 K): 0.613 ± 0.043
- activity coefficient (348.15 K): 0.632 ± 0.044
- activity coefficient (358.15 K): 0.646 ± 0.044

Compound: CCCC(C)=O [pentan-2-one] + CCCCC[N+]1(C)CCCCC1.O=S(=O)([N-]S(=O)(=O)C(F)(F)F)C(F)(F)F
- activity coefficient (318.15 K): 0.611 ± 0.043
- activity coefficient (328.15 K): 0.629 ± 0.043
- activity coefficient (338.15 K): 0.643 ± 0.044
- activity coefficient (348.15 K): 0.666 ± 0.045
- activity coefficient (358.15 K): 0.682 ± 0.046

Compound: CCCCC [pentane] + CCCCCC[N+]1(C)CCCCC1.O=S(=O)([N-]S(=O)(=O)C(F)(F)F)C(F)(F)F
- activity coefficient (308.15 K): 5.95 ± 0.41
- activity coefficient (318.15 K): 5.73 ± 0.39
- activity coefficient (328.15 K): 5.42 ± 0.37
- activity coefficient (338.15 K): 5.3 ± 0.36
- activity coefficient (348.15 K): 5.2 ± 0.35
- activity coefficient (358.15 K): 4.95 ± 0.34

Compound: CCCO [propan-1-ol] + CCCCCC[N+]1(C)CCCCC1.O=S(=O)([N-]S(=O)(=O)C(F)(F)F)C(F)(F)F
- activity coefficient (308.15 K): 2.05 ± 0.14
- activity coefficient (318.15 K): 1.83 ± 0.12
- activity coefficient (328.15 K): 1.67 ± 0.11
- activity coefficient (338.15 K): 1.53 ± 0.1
- activity coefficient (348.15 K): 1.43 ± 0.09
- activity coefficient (358.15 K): 1.33 ± 0.09

Compound: CCCO [propan-1-ol] + CCCCC[N+]1(C)CCCCC1.O=S(=O)([N-]S(=O)(=O)C(F)(F)F)C(F)(F)F
- activity coefficient (308.15 K): 2.05 ± 0.14
- activity coefficient (318.15 K): 1.82 ± 0.12
- activity coefficient (328.15 K): 1.68 ± 0.11
- activity coefficient (338.15 K): 1.55 ± 0.1
- activity coefficient (348.15 K): 1.46 ± 0.1
- activity coefficient (358.15 K): 1.36 ± 0.09

Compound: C1CCOC1 [tetrahydrofuran] + CCCCCC[N+]1(C)CCCCC1.O=S(=O)([N-]S(=O)(=O)C(F)(F)F)C(F)(F)F
- activity coefficient (308.15 K): 0.563 ± 0.04
- activity coefficient (318.15 K): 0.579 ± 0.041
- activity coefficient (328.15 K): 0.594 ± 0.042
- activity coefficient (338.15 K): 0.612 ± 0.043
- activity coefficient (348.15 K): 0.627 ± 0.043
- activity coefficient (358.15 K): 0.635 ± 0.044

Compound: C1CCOC1 [tetrahydrofuran] + CCCCC[N+]1(C)CCCCC1.O=S(=O)([N-]S(=O)(=O)C(F)(F)F)C(F)(F)F
- activity coefficient (308.15 K): 0.617 ± 0.043
- activity coefficient (318.15 K): 0.627 ± 0.043
- activity coefficient (328.15 K): 0.641 ± 0.044
- activity coefficient (338.15 K): 0.653 ± 0.045
- activity coefficient (348.15 K): 0.667 ± 0.045
- activity coefficient (358.15 K): 0.682 ± 0.046

Compound: c1ccsc1 [thiophene] + CCCCCC[N+]1(C)CCCCC1.O=S(=O)([N-]S(=O)(=O)C(F)(F)F)C(F)(F)F
- activity coefficient (308.15 K): 0.614 ± 0.043
- activity coefficient (318.15 K): 0.627 ± 0.043
- activity coefficient (328.15 K): 0.643 ± 0.044
- activity coefficient (338.15 K): 0.655 ± 0.045
- activity coefficient (348.15 K): 0.664 ± 0.045
- activity coefficient (358.15 K): 0.675 ± 0.046

Compound: c1ccsc1 [thiophene] + CCCCC[N+]1(C)CCCCC1.O=S(=O)([N-]S(=O)(=O)C(F)(F)F)C(F)(F)F
- activity coefficient (308.15 K): 0.646 ± 0.044
- activity coefficient (318.15 K): 0.665 ± 0.045
- activity coefficient (328.15 K): 0.673 ± 0.046
- activity coefficient (338.15 K): 0.69 ± 0.046
- activity coefficient (348.15 K): 0.708 ± 0.047
- activity coefficient (358.15 K): 0.722 ± 0.048

Compound: Cc1ccccc1 [toluene] + CCCCCC[N+]1(C)CCCCC1.O=S(=O)([N-]S(=O)(=O)C(F)(F)F)C(F)(F)F
- activity coefficient (308.15 K): 0.864 ± 0.055
- activity coefficient (318.15 K): 0.894 ± 0.057
- activity coefficient (328.15 K): 0.909 ± 0.058
- activity coefficient (338.15 K): 0.934 ± 0.059
- activity coefficient (348.15 K): 0.957 ± 0.06
- activity coefficient (358.15 K): 0.969 ± 0.061

Compound: Cc1ccccc1 [toluene] + CCCCC[N+]1(C)CCCCC1.O=S(=O)([N-]S(=O)(=O)C(F)(F)F)C(F)(F)F
- activity coefficient (308.15 K): 0.91 ± 0.058
- activity coefficient (318.15 K): 0.919 ± 0.058
- activity coefficient (328.15 K): 0.955 ± 0.06
- activity coefficient (338.15 K): 0.975 ± 0.061
- activity coefficient (348.15 K): 1.01 ± 0.06
- activity coefficient (358.15 K): 1.05 ± 0.07

Compound: O [water] + CCCCCC[N+]1(C)CCCCC1.O=S(=O)([N-]S(=O)(=O)C(F)(F)F)C(F)(F)F
- activity coefficient (308.15 K): 5.31 ± 0.36
- activity coefficient (318.15 K): 4.46 ± 0.3
- activity coefficient (328.15 K): 3.81 ± 0.26
- activity coefficient (338.15 K): 3.26 ± 0.22
- activity coefficient (348.15 K): 2.8 ± 0.19
- activity coefficient (358.15 K): 2.45 ± 0.17

Compound: O [water] + CCCCC[N+]1(C)CCCCC1.O=S(=O)([N-]S(=O)(=O)C(F)(F)F)C(F)(F)F
- activity coefficient (308.15 K): 5.05 ± 0.34
- activity coefficient (318.15 K): 4.19 ± 0.29
- activity coefficient (328.15 K): 3.7 ± 0.25
- activity coefficient (338.15 K): 3.18 ± 0.22
- activity coefficient (348.15 K): 2.78 ± 0.19
- activity coefficient (358.15 K): 2.44 ± 0.17
